Source: US20070232572A1, “Chemical derivatives as antitelomerase agents which bind specifically to the G-quadruplex DNA structures and their application as a specific anticancer agent” (priority 2003, published 2007)
Read-outs that look alike come from different tables or passages of the source.

Experiments:
[1] = molecular target: oligonucleotide capable of forming a monomeric G-quadruplex structure; assay: Test of affinity No. 2: dissociation constant of the complex with a monomeric G-quadruplex oligonucleotide, by fluorescence; type: binding; conditions: read-out: Affinity/selectivity G4 Test 2 (Kd by fluorescence) Kd
Description: Test of affinity No. 2: Measurement of the dissociation constant, expressed in μM, of the complex between a product of the invention and an oligonucleotide, capable of forming a monomeric G-guadruplex structure, by a fluorescence method according to the experimental protocol is described below.
The titrations are carried out at 20° C. in a quartz cuvette having a useful volume of 3 ml and a cross section of 10×10 mm, placed in the thermostated compartment of the Spex Fluorolog 3 fluorimeter (Jobin-Yvon). […] To a 0.1 μM solution of compound are added increasing concentrations of nucleic acids. After an equilibration time of 3 minutes, a fluorescence emission spectrum is recorded for each point, using slits of 5 nm and an excitation wavelength of 340 nm. Each aliquot represents an additional volume of 3 microliters. The effects of dilution are corrected at the end of the experiment after integrating the emission signal. The curves representing the emission intensity as a function of the nucleic acid concentration are then analyzed and fitted with the Kaleidagraph 3.52 software for Macintosh.

[2] = tested on: G-quadruplex oligonucleotide GGGTTAGGGTTAGGGTTAGGG (3.5 repeats of the human telomeric unit), FAM+DABCYL; assay: Test of affinity No. 3: stabilization of the G-quadruplexes, fluorescence Tm; type: binding; conditions: test product 1 μM, oligonucleotide 0.2 μM, 0.1 M LiCl, 10 mM cacodylate pH 7.6; reference Tm 44° C.
Excerpt: Test of affinity No. 3: Measurement of the stabilization of the G-guadruplexes Tm, expressed in ° C., by a method using the formation of a complex with fluorescein of which the experimental protocol is described below.
All the oligonucleotides, modified or otherwise, were synthesized by Eurogentec S A, Seraing, Belgium. The oligonucleotide FAM+DABCYL has the catalog reference OL-0371-0802. It has the sequence: […] corresponding to 3.5 repeats of the human telomeric unit (strand rich in G). The fluorescein is attached to the 5′ end, the DABCYL to the 3′ end, by the chemical arms described by Eurogentec. An oligonucleotide FAM+TAMRA may also be used. The concentration of the samples is checked by spectrophotometry, by recording the absorbance spectrum between 220 and 700 nm and using the molar extinction coefficient provided by the supplier.
All the experiments were carried out in a 10 mM sodium cacodylate buffer pH 7.6 containing 0.1 M lithium chloride (or sodium chloride). The absence of fluorescent contamination in the buffer was checked beforehand. The fluorescent oligonucleotide is added at the final concentration of 0.2 μM.
All the measurements of fluorescence were carried out on a Spex Fluorolog DM1B or Fluoromax 3 apparatus, using an excitation line width of 1.8 nm and an emission line width of 4.5 or 5 nm. The samples are placed in a microquartz cuvette of 0.2×1 cm. […] The oligonucleotide alone was analyzed at 20, 30, 40, 50, 60, 70 and 80° C. The emission spectra are recorded using an excitation wavelength of 470 nm. The excitation spectra are recorded using either 515 or 588 nm as emission wavelength. […] A high extinction (80-90%) of the fluorescence of fluorescein at room temperature is observed, in agreement with an intramolecular folding of the oligonucleotide at 20° C. in the form of a G-quadruplex, which induces juxtaposition of its 5′ and 3′ ends which are respectively linked to fluorescein and to DABCYL. This juxtaposition causes an already-described phenomenon of extinction of fluorescence which is used for “Molecular Beacons”. […]

[3] = tested on: oligonucleotide capable of forming a G-quadruplex structure (G-rich strand, repetitive units of human telomeric DNA); assay: Test of affinity No. 1 (alpha screen): inhibition of pairing of a G-quadruplex-forming oligonucleotide with its complementary strand, luminescence; type: binding; conditions: 50 mM TRIS-HCl pH 7.4, 100 mM KCl, 0.1% BSA; telomeric strand vs complementary strand; read-out: Affinity/selectivity G4 Test 1 (alpha screen) Affinity IC50
Excerpt: The principle of this test uses the activation of “acceptor” beads by an oxygen singlet emitted by “donor” beads excited by laser when the “acceptor” and “donor” beads are in proximity. This test was developed by Packard Bioscience under the name Amplified Luminescent Proximity Homogeneous Assay or ALPHA screen.
The “donor” beads are conjugated with streptavidin and the acceptor beads with an anti-digoxigenin antibody (catalog reference 6760604). A DNA strand, in this case the telomeric strand, is coupled at its 5′ end to biotin so as to be able to bind to the “donor” beads, while the complementary strand is coupled to digoxigenin so as to be able to bind to the “acceptor” beads. During the pairing of the telomeric strand with its complementary strand, the beads are placed in proximity and a luminescence signal is then emitted at a wavelength of 520-620 nm.
The oligonucleotides used in the experiments were synthesized by Perkin Elmer Life Sciences (Finland). […] The complementary strand has the sequence GGT-TTA-AAA-AAT-TTG-CCC-TAA-CCC-TAA-CCC-TAA-CCC-T. The biotin or the digoxigenin are added to the 5′ end of the oligonucleotides.
The experiments are carried out in 50 mM TRIS-HCl buffer pH 7.4 containing 100 mM KCl and 0.1% BSA.
The measurements are carried out with an Alphaquest microplate analyzer (Fusion α) from Packard Biosciences.
The experiments are carried out in 96-well plates (½ wells). An oligonucleotide stock solution at the concentration of 25 nM in the buffer described above is prepared. 10 μl of this solution are distributed into the wells. 10 μl of the test product at different concentrations, prepared in the same buffer containing 0.6% DMSO, are then added. 10 μl of buffer+0.6% DMSO are distributed into the control wells. The samples are left to incubate for 15 minutes at room temperature. After this incubation time, 10 μl of the complementary strand at the concentration of 25 nM and 20 μl of a solution containing 2 types of bead diluted beforehand to 50 mg/ml are added to the wells. The plates are incubated at room temperature for 2 hours before reading. […]

[4] = tested on: any oligonucleotide (non-G-quadruplex control sequence) with its complementary strand; assay: Test of selectivity No. 1 (alpha screen): inhibition of pairing of any oligonucleotide with its complementary strand, luminescence; type: binding; conditions: control oligonucleotide pairing versus G4 oligonucleotide pairing
Excerpt: The test used is the same as that described above. Only the oligonucleotides are different, the telomeric strand being replaced by an oligonucleotide having the following sequence: G-GTT-TAA-AAT-AAT-TGA-GGC-TTA-CCG-TTA-CCG-TTA-CGG biotinylated at the 5′ end. The complementary strand has the sequence: 5′-GGT-TTA-AAA-AAT-TTG-CGG-TAA-CGG-TAA-CGG-TAA-GCC-T labeled with digoxigenin at the 5′ end. If the test product has affinity for the biotinylated DNA sequence, the pairing of the complementary strand will be prevented and the signal obtained will be minimal. In the absence of product or if the latter has no affinity for this DNA, the pairing will occur and the signal will be maximum.

[5] = tested on: any double-stranded oligonucleotide; assay: Test of selectivity No. 2: dissociation constant of the complex with a double-stranded oligonucleotide, by fluorescence; type: binding; conditions: DNA double strand versus oligonucleotide G4
Description: Test of selectivity No. 2: Measurement of the dissociation constant, expressed in μM, of the complex between a product of the invention and any double-stranded oligonucleotide, by a fluorescence method according to the experimental protocol is described below.
The titrations are carried out according to a protocol identical to that used for the titrations of the preceding test.

[6] = tested on: human telomerase (extract of A549 cells), oligonucleotide TSG4; assay: Antitelomerase activity by the TRAP-G4 assay; type: biochemical; conditions: formation of the TSG4-CXext band; read-out: Inhibition of telomerase IC50 (IC50 TRAP-G4)
Description: The extract is stored at -80° C.

[7] = 20° C., sodium cacodylate pH 7.2, 100 mM potassium chloride (K+)

Compound | Kd [1, 7] | Affinity G4 Test 3 Delta Tm [2] | IC50 [3] | Affinity/selectivity G4 Test 1 (alpha screen) Selectivity factor [4] | Affinity/selectivity G4 Test 2 (Kd by fluorescence) Selectivity factor [5] | IC50 [6] | Kd ([1]; Na+)
C[n+]1cccc2cc(NC(=O)c3cccc(C(=O)Nc4ccc5c(ccc[n+]5C)c4)n3)ccc21.[I-].[I-] [Example 1, bis[(1-methylquinolinio-6-yl)amido]-2,6-pyridinedicarboxylic acid diiodide] | 7 nM | 26 °C | 160 nM | >20 | >>100 | 450 nM | 
C[n+]1cccc2cc(NC(=O)c3cccc(C(=O)Nc4cc5ccccc5[n+](C)c4)n3)ccc21.[I-].[I-] [Example 9, 2-[(1-methylquinolinio-6-yl)amido]-6-[(1-methylquinolinio-3-yl)amido]-2,6-pyridinedicarboxylic acid iodide] | 0.7 nM | 21 °C | 60 nM | >50 | >1000 | 300 nM | 3.2 nM
C[n+]1cccc2cc(NC(=O)c3cccc(C(=O)NCC[N+]4(C)CCCCC4)n3)ccc21.[I-].[I-] [Example 12, 2-[(1-methylquinolinio-6-yl)amido]-6-[2(-1-methylpiperidinio-1-yl)ethylamido]-2,6-pyridinedicarboxylic acid diiodide] |  | 12.1 °C | 1060 nM | >3 |  | 1500 nM | 
